Experimental data from article PMC10458859, “Stem Cell Bioengineering with Bioportides: Inhibition of Planarian Head Regeneration with Peptide Mimetics of Eyes Absent Proteins” (Pharmaceutics, 2023).
[ ]: non-standard residue; d: D form. Aib = CC(C)(N)C(=O)O

Tests used:
[1] = Circular dichroism secondary structure analysis; assay type: physicochemical; conditions: CD; for difference in percentage α-helicity in the presence of lipid membranes: DMPC and DMPS vesicles, lipid:peptide 100 to 1
Experimental: Secondary structure analyses of Djeya1 peptides were performed on a Jasco J-815 CD spectrometer (Jasco Ltd., Heckmondwike, UK). Peptides (0.01 mg mL^−^1) were dissolved in either 1 × phosphate buffered saline (PBS) at pH 7.4 or in a 2,2,2-tetrafluoroethanol (TFE) and 1 × PBS mixture (50.0% v/v). All buffers were prepared using ultra-pure water (resistivity 18 MΩ cm), PBS and TFE (Scientific Laboratory Supplies Ltd., Nottingham, UK). CD experiments were also performed at peptide:lipid ratios of 1:100, whilst 1,2-dimyristoyl-sn-glycero-3-phosphatidylcholine (DMPC) and 1,2-dimyristoyl-sn-glycero-3-phosphatidylserine (DMPS) (5 mg mL^−^1) (Avanti Polar Lipids, Alabaster, AL, USA) were dissolved separately in chloroform (HPLC grade, VWR International Ltd Lutterworth, UK) and dried under N2 gas. The lipid film was rehydrated using 1 × PBS, pH 7.5 for 1 h or until the solution was no longer turbid. The solution then underwent 5 cycles of freeze thaw before the lipid/peptide samples were prepared by the addition of peptide stock solution (final concentration 0.01 mg mL^−^1). Far UV CD spectra (180 nm to 260 nm) were recorded at 20 °C using 0.5 nm intervals, a bandwidth of 1 nm, a scan speed of 50 nm min^−1 and a 10 mm path-length cell. Ten accumulations were selected to average a single spectrum. Samples without peptide were prepared for background spectral subtraction. Data, baseline-subtracted and averaged CD, were analyzed using the Dichroweb server CDSSTR and SELCON3 reference dataset 3 [23, 24, 25]. To generate percentage structure averages, these analyses were repeated four times.

[2] = system: decapitated S. mediterranea; assay: Anterior pole regeneration and eye development assay; assay type: in vivo, Schmidtea mediterranea; conditions: for influence upon planarian head regeneration: 25 μM exogenous application to decapitated S. mediterranea, monitored over 8 days; for response to light: 25 μM in PAM after amputation, day 8; for response to light / regeneration of the anterior pole, including the eye spots: re-treated day 4; for regeneration of the anterior pole, including the eye spots: 25 μM in PAM immediately after transverse amputation, observed day 8, compared to PAM alone; for animals that achieved full regeneration / animals that had commenced the development of photoreceptors within the unpigmented blastema: n = 9; for animals that had commenced the development of photoreceptors within the unpigmented blastema: 25 μM, day 9 post amputation
Experimental: Adult planaria, 4–6 mm in length, and selected for experimentation were starved 5 days prior to amputation. Transverse amputation of planarian heads, post-auricle and pre-pharynx, induced blastema formation in the trunk section, leading to eye regeneration and head remodeling.
Post amputation, planaria were immediately treated with exogenously added Djeya1 analogues in 35 mm diameter × 10 mm depth culture dishes (VWR International Ltd., Lutterworth, UK) to a final volume of 4 mL PAM and maintained at 20 °C. PAM, containing Djeya1 analogues, was replenished 4 days post amputation. […]

U251 cells = assay: Quantitative peptide uptake, U251; assay type: cell-based; conditions: 1 h, 37 °C; for rank order of uptake efficacy: U251, TAMRA-labelled peptides 1, 2.5, 5 μM, lysate fluorescence 544/590 nm, two experiments in triplicate
Experimental: (§1) U373MG and U251 cells were maintained as above and then transferred to 6-well plates and grown to 80% confluence. Cells were washed and maintained in phenol red-free DMEM and subsequently treated with TAMRA-conjugated Djeya1 analogues at final concentrations of 1 μM, 2.5 μM, and 5 μM for 1 h in culture conditions as above. Cells were washed four times, detached with 300 μL of 1% (w/v) trypsin (without phenol red) at 37 °C, collected by centrifugation, and lysed in 300 μL 0.1 M NaOH for 2 h on ice. A total of 250 μL of each sample cell lysate was transferred to a black 96-well plate and analysed using a Thermo Fischer Scientific (Loughborough, UK) Fluoroskan Ascent FL fluorescence spectrophotometer (λAbs 544 nm/λEm 590 nm).

U373MG cells = assay: Quantitative peptide uptake, U373MG; assay type: cell-based; conditions: TAMRA-labelled peptides 1, 2.5, 5 μM, 1 h, 37 °C, lysate fluorescence 544/590 nm, two experiments in triplicate
Experimental: as §1

[3] = 50% (v/v) TFE/PBS pH 7.4, peptide 0.01 mg mL-1, 20 °C
[4] = 50% (v/v) TFE/PBS pH 7.4, peptide 0.01 mg mL-1, 20 °C, Dichroweb, analyses repeated four times
[5] = DMPC vesicles, lipid:peptide 100 to 1, PBS, peptide 0.01 mg mL-1, 20 °C
[6] = DMPS vesicles, lipid:peptide 100 to 1, PBS, peptide 0.01 mg mL-1, 20 °C
[7] = PBS pH 7.4, peptide 0.01 mg mL-1, 20 °C, Dichroweb CDSSTR/SELCON3, analyses repeated four times
[8] = PBS pH 7.4, peptide 0.01 mg mL-1, 20 °C, Dichroweb, analyses repeated four times
[9] = 25 μM treatment, 30 days post amputation, in PAM

| Substance | Unordered [1, 3] [%] | ß-Strand [1, 3] [%] | ß-Turns [1, 3] [%] | α-helix [1, 4] [%] | Unordered [1, 5] [%] | ß-Turns [1, 5] [%] | α-helix [1, 5] [%] | Unordered [1, 6] [%] | ß-Strand [1, 6] [%] | ß-Turns [1, 6] [%] | α-helix [1, 6] [%] | α-helix [1, 7] [%] | Unordered [1, 8] [%] | ß-Strand [1, 8] [%] | ß-Turns [1, 8] [%] | influence upon planarian head regeneration [2] | rank order of uptake efficacy (U251 cells) | difference in percentage α-helicity in the presence of lipid membranes [1] | ß-Strand [1, 5] [%] | rank order of uptake efficacy (U373MG cells) | further results |
| --- | --- | --- | --- | --- | --- | --- | --- | --- | --- | --- | --- | --- | --- | --- | --- | --- | --- | --- | --- | --- | --- |
| H-RKLAFRYRRIKELYNSYR-NH2 [Djeya1, octadecapeptide CPP mimicking the α5 helix of the Eya domain of eyes absent proteins] | 20.00 ± 1.41 | 27.55 ± 3.53 | 7.00 ± 0.00 | 45.50 ± 4.94 | 22.00 ± 0.00 | 8.00 ± 0.0 | 44.00 ± 1.53 | 20.00 ± 0.00 | 26.00 ± 1.28 | 8.00 ± 0.00 | 47.00 ± 1.24 | 43.00 ± 1.73 | 20.00 ± 1.73 | 30.33 ± 0.58 | 6.67 ± 0.58 | inactive | – | – | – | – | – |
| H-RKLAFRYRRIKELYN[Aib]YR-NH2 (SMILES CC[C@H](C)[C@H](NC(=O)[C@H](CCCNC(=N)N)NC(=O)[C@H](CCCNC(=N)N)NC(=O)[C@H](Cc1ccc(O)cc1)NC(=O)[C@H](CCCNC(=N)N)NC(=O)[C@H](Cc1ccccc1)NC(=O)[C@H](C)NC(=O)[C@H](CC(C)C)NC(=O)[C@H](CCCCN)NC(=O)[C@@H](N)CCCNC(=N)N)C(=O)N[C@@H](CCCCN)C(=O)N[C@@H](CCC(=O)O)C(=O)N[C@@H](CC(C)C)C(=O)N[C@@H](Cc1ccc(O)cc1)C(=O)N[C@@H](CC(N)=O)C(=O)NC(C)(C)C(=O)N[C@@H](Cc1ccc(O)cc1)C(=O)N[C@@H](CCCNC(=N)N)C(N)=O) [[Aib^16]Djeya1, Aib-substituted Djeya1 analogue, position 16; bioportide] | 19.50 ± 0.71 | 27.50 ± 0.71 | 7.00 ± 0.00 | 46.00 ± 1.41 | 22.00 ± 0.71 | 7.00 ± 0.71 | 42.00 ± 0.71 | 22.00 ± 0.71 | 30.00 ± 0.71 | 8.00 ± 0.71 | 42.00 ± 0.00 | 39.67 ± 4.04 | 21.00 ± 1.00 | 31.67 ± 2.87 | 7.33 ± 0.58 | delay head regeneration | [Aib^13]Djeya1 > [Aib^16]Djeya1 > [Aib^10]Djeya1 | No difference | 30.00 ± 0.71 | [Aib^16]Djeya1 = [Aib^10]Djeya1 > [Aib^13]Djeya1 | response to light [2]: unresponsive to light; regeneration of the anterior pole, including the eye spots [2]: absent; animals that achieved full regeneration [2, 9]: all; animals that had commenced the development of photoreceptors within the unpigmented blastema [2]: 67% |
| H-RKLAFRYRRIKE[Aib]YNSYR-NH2 (SMILES CC[C@H](C)[C@H](NC(=O)[C@H](CCCNC(=N)N)NC(=O)[C@H](CCCNC(=N)N)NC(=O)[C@H](Cc1ccc(O)cc1)NC(=O)[C@H](CCCNC(=N)N)NC(=O)[C@H](Cc1ccccc1)NC(=O)[C@H](C)NC(=O)[C@H](CC(C)C)NC(=O)[C@H](CCCCN)NC(=O)[C@@H](N)CCCNC(=N)N)C(=O)N[C@@H](CCCCN)C(=O)N[C@@H](CCC(=O)O)C(=O)NC(C)(C)C(=O)N[C@@H](Cc1ccc(O)cc1)C(=O)N[C@@H](CC(N)=O)C(=O)N[C@@H](CO)C(=O)N[C@@H](Cc1ccc(O)cc1)C(=O)N[C@@H](CCCNC(=N)N)C(N)=O) [[Aib^13]Djeya1, Aib-substituted Djeya1 analogue, position 13; bioportide] | 22.33 ± 1.50 | 31.00 ± 2.08 | 7.33 ± 0.05 | 40.00 ± 2.64 | 22.00 ± 0.71 | 8.00 ± 0.71 | 42.00 ± 0.71 | 21.00 ± 0.71 | 30.00 ± 0.71 | 7.00 ± 0.71 | 42.00 ± 0.00 | 40.67 ± 1.52 | 22.33 ± 1.52 | 30.00 ± 1.00 | 7.00 ± 0.00 | delay head regeneration | [Aib^13]Djeya1 > [Aib^16]Djeya1 > [Aib^10]Djeya1 | No difference | 30.00 ± 0.71 | [Aib^16]Djeya1 = [Aib^10]Djeya1 > [Aib^13]Djeya1 | uptake efficacy into U251 cells compared with U373MG cells (U251 cells; TAMRA-labelled peptide): increased uptake efficacy; effect of 50% TFE/PBS on α-helical structure ([1]; 50% TFE/PBS (v/v) compared with PBS): did not enhance; response to light [2]: unresponsive to light; regeneration of the anterior pole, including the eye spots [2]: absent; animals that remained unregenerated and in stasis [2, 9]: 33%; animals that achieved full regeneration [2, 9]: 67%; animals that had commenced the development of photoreceptors within the unpigmented blastema [2]: 67% |
| H-RKLAFRYRR[Aib]KELYNSYR-NH2 (SMILES CC(C)C[C@H](NC(=O)[C@H](CCCCN)NC(=O)[C@@H](N)CCCNC(=N)N)C(=O)N[C@@H](C)C(=O)N[C@@H](Cc1ccccc1)C(=O)N[C@@H](CCCNC(=N)N)C(=O)N[C@@H](Cc1ccc(O)cc1)C(=O)N[C@@H](CCCNC(=N)N)C(=O)N[C@@H](CCCNC(=N)N)C(=O)NC(C)(C)C(=O)N[C@@H](CCCCN)C(=O)N[C@@H](CCC(=O)O)C(=O)N[C@@H](CC(C)C)C(=O)N[C@@H](Cc1ccc(O)cc1)C(=O)N[C@@H](CC(N)=O)C(=O)N[C@@H](CO)C(=O)N[C@@H](Cc1ccc(O)cc1)C(=O)N[C@@H](CCCNC(=N)N)C(N)=O) [[Aib^10]Djeya1, Aib-substituted Djeya1 analogue, position 10] | 20.00 ± 0.00 | 21.00 ± 0.02 | 7.50 ± 0.71 | 51.50 ± 0.07 | 22.00 ± 1.41 | 7.00 ± 1.41 | 45.00 ± 1.58 | 16.00 ± 0.00 | 15.00 ± 0.00 | 5.00 ± 0.00 | 63.00 ± 2.82 | 41.33 ± 1.15 | 20.67 ± 0.58 | 31.33 ± 0.58 | 7.00 ± 0.00 | inactive | [Aib^13]Djeya1 > [Aib^16]Djeya1 > [Aib^10]Djeya1 | – | – | [Aib^16]Djeya1 = [Aib^10]Djeya1 > [Aib^13]Djeya1 | – |
